Experimental data published in patent US20220380341A1, “INHIBITORS OF HIV-1 NEF FOR THE TREATMENT OF HIV DISEASE” (priority 2018, published 2022).
Where two headings read alike, the source gives them in different places.

Experiments:
HIV-1 NefNL4-3 = HIV-1 NefNL4-3 (Human immunodeficiency virus type 1 group M subtype B, UniProt P03406, A33V/T15A/T51N/V11I); experiment: Surface plasmon resonance binding to recombinant full-length Nef (NL4-3); conditions: for RU30/RUNef (extent of binding): response units at 30 μM relative to Nef immobilized on the SPR chip
TZM-bl cell line = format: cell-based; conditions: human, 1 μM
How it was run: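 Nef-dependent infectivity in TZM-bl cells: HIV-1NL4-3 infection with 1 μM compound, luciferase read at 48 h, normalized against DMSO wild-type and Nef-defective controls. Compound cytotoxicity in uninfected cells measured by Cell Titer Blue.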

HIV-1 NL4-3 = experiment: HIV-1 replication in normal donor PBMCs (p24 Gag AlphaLISA); format: cell-based; conditions: Table 1, 4 days, words (Not active, Borderline) where no bound is given
Method: FIG. 4. Inhibition of HIV-1 replication by compounds disclosed herein in PBMCs. Donor PBMCs were infected with HIV-1 in the presence of inhibitor concentrations ranging from 1 to 1,000 nM or the DMSO carrier solvent as a negative control (0.1% DMSO final). Replication was assessed by p24 Gag AlphaLISA (Perkin Elmer) […]. Each donor was also infected with Nef-defective HIV-1 to establish the baseline for Nef-dependent enhancement of replication in each culture. Cytotoxicity was assessed in uninfected PBMCs over the same incubation period using the CellTiter-Blue assay (Promega). Data were fit by non-linear regression analysis (GraphPad Prism v.7.04) to determine the IC50 and CC50 values shown.
The tables also show data for HIV-1 Replication in normal donor peripheral blood mononuclear cells (PBMCs), which is assay is conducted as follows:
Non-HLA-typed buffy coats (Source: Pittsburgh Central Blood Bank, #E3755) are received and processed within 24 hours of blood donation. PBMCs are isolated via rocking for RBC separation following 1:1 dilution with PBS, followed by Ficoll gradient centrifugation. The lymphocyte fraction is removed and washed several times for a final concentration of ˜150-300×10^6 cells per donor. Cells are activated for 3 days with 1-5 μg/mL PHA (Sigma) and 50 U/mL IL-2. Cells are plated at 750,000 cells/ml and viability is checked at day 3 using the Cell Titer Blue assay (Promega). If cells are >90% viable, then they are infected with HIV-1 NL4-3, wild-type or Δ-Nef mutant (input typically 30-500 pg/mL p24 capsid equivalents) in the presence or absence of Nef inhibitor analogs. IL-2 is included in the media at the time of infection. After 4 days, cells are lysed with 1% Triton X-100 for 1.5 h, checked for viability via Cell Titer Blue, and frozen/stored at −20° C. HIV-1 replication is assessed with a high-sensitivity HIV-1 p24 AlphaLISA assay (Perkin Elmer) in ½-volume 96-well plates, using one-half of the recommended assay volumes for all reagents (including samples). Assays are read on the BioTek Cytation5 instrument; readout is in AlphaUnits and replication in p24 pg/mL is determined using an HIV-1 p24 capsid protein standard included in the Alpha kit.

HIV-1NL4-3 = experiment: HIV-1 infectivity assay in TZM-bl reporter cell line (LTR-luciferase, 48 h); format: cell-based; conditions: Human immunodeficiency virus 1, TZM-bl
How it was run: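 TZM-bl cells infected with HIV-1NL4-3 ± compound (1 μM), luciferase measured at 48 h. Normalization: DMSO/wild-type = 0% inhibition, DMSO/Nef-defective = 100% of Nef-dependent effect.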

[1] = Nef NL4-3 Binding, SPR 2-state fitting KD, Table 1, 2-step induced-fit model
[2] = 48 h, Table 1, TZM-bl cells, 1 μM, 48 h, 100% = Nef-defective HIV-1, read-out: HIV-1 Infectivity % Inhibition Norm. to Δ-Nef @ 1 μM
[3] = read-out: Nef NL4-3 Binding, SPR 1:1 or 2-site fitting KD2, Table 1, 2-site fit, second component
[4] = 1.0 μM, TZM-bl reporter cell line, Table 4, read-out: % Infectivity Inhibition
[5] = KD, M, Table 4, SPR fit 2-step induced fit, KD = koff/kon × koff2/(koff2 + kon2)
[6] = Table 4, 2-step induced fit, T = 1/koff2
[7] = KD, M, Table 4, SPR fit 1:1 Langmuir, KD = koff/kon
[8] = Table 4, 1:1 Langmuir fit, T = 1/koff

| Structure (SMILES) | Kd (HIV-1 NefNL4-3; Nef NL4-3 Binding, SPR 1:1 or 2-site fitting KD2, Table 1, 2-site fit, second component) [nM] | Kd (HIV-1 NefNL4-3; [1]) [nM] | Percent Viability @ 1 μM (TZM-bl cells) (TZM-bl cell line) [%] | HIV Replication PBMC IC50 vs. HIV NL4-3 (HIV-1 NL4-3) | inhibition at 1 µM (HIV-1NL4-3; [2]) [%] | Kd (HIV-1 NefNL4-3) [nM] | Kd (HIV-1 NefNL4-3; [3]) [nM] | RU30/RUNef (extent of binding) (HIV-1 NefNL4-3) | % Cell Viability (TZM-bl cell line) [%] | inhibition at 1 µM (HIV-1NL4-3; [4]) [%] | Kd (HIV-1 NefNL4-3; [5]) [nM] | T, minutes (residence time) (HIV-1 NefNL4-3; [6]) | Kd (HIV-1 NefNL4-3; [7]) [nM] | T, minutes (residence time) (HIV-1 NefNL4-3; [8]) | Nef NL4-3 Binding, SPR 1:1 or 2-site fitting KD1 (HIV-1 NefNL4-3; Table 1, 1:1 Langmuir fit where the KD2 cell says '1 to 1 fitting', else 2-site fit) | inhibition at 1 µM (HIV-1NL4-3; 48 h, Table 2, TZM-bl cells, 1 μM, 48 h, 100% = Nef-defective HIV-1, read-out: HIV-1 Infectivity % Inhibition Norm. to Δ-Nef @ 1 μM) [%] |
| --- | --- | --- | --- | --- | --- | --- | --- | --- | --- | --- | --- | --- | --- | --- | --- | --- |
| Oc1c(CCc2ccc(F)cc2)c(-c2cccc(F)c2)nn1-c1nc2ccccc2[nH]1 [Compound I-110, 1-(1H-1,3-benzodiazol-2-yl)-3-(3-fluorophenyl)-4-[2-(4-fluorophenyl)ethyl]-1H-pyrazol-5-ol] | 2140 | 30.2 | 88.4 | Not active | 84.9 | – | – | – | – | – | – | – | – | – | – | – |
| Oc1c(CCc2ccc(F)cc2)c(-c2ccc(C(F)(F)F)cn2)nn1-c1nc2ccccc2[nH]1 [Compound I-119, 1-(1H-1,3-benzodiazol-2-yl)-4-[2-(4-fluorophenyl)ethyl]-3-[5-(trifluoromethyl)pyridin-2-yl]-1H-pyrazol-5-ol] | – | – | 77.1 | Not active | 80.7 | 0.0189 | 6830 | 7.52E- 03 | 77.1 | 80.7 | – | – | – | – | – | – |
| Oc1c(CCc2ccc(F)cc2)c(CNCc2cccnc2)nn1-c1nc2ccccc2[nH]1 [Compound I-811, 1-(1H-1,3-benzodiazol-2-yl)-4-[2-(4-fluorophenyl)ethyl]-3-({[(pyridin-3-yl)methyl]amino}methyl)-1H-pyrazol-5-ol] | – | 12600 | 100.7 | – | 8.3 | 559 | 2380 | 3.57E- 03 | 100 | 8.3 | 12600 | 3.83E- 01 minutes | – | – | – | – |
| Oc1c(CCC2CCN(c3ncc(F)cn3)CC2)c(C2CC2)nn1-c1nc2cc(Cl)ccc2[nH]1 [Compound I-901, 1-(5-chloro-1H-1,3-benzodiazol-2-yl)-3-cyclopropyl-4-{2-[1-(5-fluoropyrimidin-2-yl)piperidin-4-yl]ethyl}-1H-pyrazol-5-ol] | – | 0.0153 | 105.0 | – | 14.3 | 481 | – | 2.23E- 03 | 100 | 14.3 | 0.0153 | 2.46E + 05 minutes | – | – | – | – |
| COc1cc(N2CCC(CCc3c(C4CC4)nn(-c4nc5cc(Cl)ccc5[nH]4)c3O)CC2)nc(OC)n1 [Compound I-902, 1-(5-chloro-1H-1,3-benzodiazol-2-yl)-3-cyclopropyl-4-{2-[1-(2,6-dimethoxypyrimidin-4-yl)piperidin-4-yl]ethyl}-1H-pyrazol-5-ol] | – | 0.00367 | 106.5 | – | 13.8 | 6.58 | – | 7.18E- 03 | 100 | 13.8 | 0.00367 | 1.46E + 06 minutes | – | – | – | – |
| Oc1c(CCc2ccc(F)cc2)c(C2CCCN(CC(F)(F)F)C2)nn1-c1nc2ccccc2[nH]1 (centres unmarked) [Compound I-1002, 1-(1H-1,3-benzodiazol-2-yl)-4-[2-(4-fluorophenyl)ethyl]-3-[1-(2,2,2-trifluoroethyl)piperidin-3-yl]-1H-pyrazol-5-ol] | – | – | 96.4 | – | 22.7 | – | 1710 | – | – | – | – | – | – | – | – | – |
| Oc1c(CCc2ccc(F)cc2)c(C2CCN(CC(F)(F)F)CC2)nn1-c1nc2ccccc2[nH]1 [Compound I-1003, 1-(1H-1,3-benzodiazol-2-yl)-4-[2-(4-fluorophenyl)ethyl]-3-[1-(2,2,2-trifluoroethyl)piperidin-4-yl]-1H-pyrazol-5-ol] | – | – | 100.9 | – | 42.3 | 1810 | – | – | – | – | – | – | – | – | – | – |
| Oc1c(CCc2ccc(F)cc2)c(CC2CCN(CC(F)(F)F)CC2)nn1-c1nc2ccccc2[nH]1 [Compound I-1004, 1-(1H-1,3-benzodiazol-2-yl)-4-[2-(4-fluorophenyl)ethyl]-3-{[1-(2,2,2-trifluoroethyl)piperidin-4-yl]methyl}-1H-pyrazol-5-ol] | – | – | 101.3 | – | -12.3 | 354 | – | 2.27E- 03 | 100 | 0 | – | – | 354 | 2.82E + 01 minutes | – | – |
| Oc1c(CC2CCN(CC(F)(F)F)CC2)c(-c2ccc(C(F)(F)F)cc2)nn1-c1nc2ccccc2[nH]1 [Compound I-1005, 1-(1H-1,3-benzodiazol-2-yl)-4-{[1-(2,2,2-trifluoroethyl)piperidin-4-yl]methyl}-3-[4-(trifluoromethyl)phenyl]-1H-pyrazol-5-ol] | – | – | 93.5 | – | 49.2 | 91 | – | 1.26E- 03 | 93.5 | 49.2 | – | – | 91 | 9.47E + 00 minutes | – | – |
| Oc1c(CCC2CCN(CC(F)(F)F)CC2)c(-c2ccc(C(F)(F)F)cc2)nn1-c1nc2ccccc2[nH]1 [Compound I-1006, 1-(1H-1,3-benzodiazol-2-yl)-4-{2-[1-(2,2,2-trifluoroethyl)piperidin-4-yl]ethyl}-3-[4-(trifluoromethyl)phenyl]-1H-pyrazol-5-ol] | – | 1.24 | 85.2 | – | 83.1 | 472 | 15100 | 5.08E- 03 | 85.2 | 83.1 | 1.24 | 1.80E + 04 minutes | – | – | – | – |
| O=C(O)c1ccc(-c2nn(-c3nc4ccccc4[nH]3)c(O)c2CCc2ccc(F)cc2)cc1 [Compound I-1101, 4-[1-(1H-1,3-benzodiazol-2-yl)-4-[2-(4-fluorophenyl)ethyl]-5-hydroxy-1H-pyrazol-3-yl]benzoic acid] | – | – | 99.3 | – | -9.9 | 376 | – | – | – | – | – | – | – | – | – | – |
| O=C(NCC1CC1)c1ccc(-c2nn(-c3nc4ccccc4[nH]3)c(O)c2CCc2ccc(F)cc2)cc1 [Compound I-1201, 4-[1-(1H-1,3-benzodiazol-2-yl)-4-[2-(4-fluorophenyl)ethyl]-5-hydroxy-1H-pyrazol-3-yl]-N-(cyclopropylmethyl)benzamide] | – | 740 | 95.4 | – | 11.8 | 369 | 2510 | 2.17E- 02 | 95.4 | 11.8 | 740 | 2.06E + 03 minutes | – | – | – | – |
| Nc1c(CCc2ccc(F)cc2)c(-c2ccc(Cl)cc2)nn1-c1nc2ccccc2[nH]1 [Compound I-1401, 1-(1H-1,3-benzodiazol-2-yl)-3-(4-chlorophenyl)-4-[2-(4-fluorophenyl)ethyl]-1H-pyrazol-5-amine] | – | – | 99.7 | – | -34.5 | – | – | – | – | – | – | – | – | – | No Interaction | – |
| Nc1c(CCC2CCOCC2)c(-c2ccc(F)cc2)nn1-c1cc(C(F)(F)F)n[nH]1 [Compound I-1402] | – | – | 102.2 | – | – | 4750 | – | – | – | – | – | – | – | – | – | 8.7 |
